Data as given in patent US9938261B2, “Heterocyclic compounds and methods of use thereof” (AMBIT BIOSCIENCES CORPORATION, priority 2011, dated 2018).
Where two headings read alike, the source gives them in different places.

How the values were obtained:
[1] = tested on: M-NFS-60 cells; experiment: M-NFS-60 cell proliferation assay (Alamar Blue); assay type: cell-based, mouse; conditions: M-NFS-60 cell proliferation, read-out: CSF1R M-NFS-60 CTB:IC50
How it was run: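 Alamar Blue reduction (3 h; 560/590 nm) measured viability after 72 h, 37 °C treatment with nine half-log compound concentrations at 0.5% DMSO. Cells: M-CSF-dependent (20 ng/mL) murine M-NFS-60 in RPMI plus 10% FBS. IC50s, averaged from duplicates, reflect half-maximal inhibition of proliferation relative to control.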

[2] = biological target: T1, FLT3 (Homo sapiens, UniProt P36888); experiment: Competition binding assay, FLT3 Kd; conditions: competition binding
T1 construct: made in house
T1 sequence (P36888 27-993): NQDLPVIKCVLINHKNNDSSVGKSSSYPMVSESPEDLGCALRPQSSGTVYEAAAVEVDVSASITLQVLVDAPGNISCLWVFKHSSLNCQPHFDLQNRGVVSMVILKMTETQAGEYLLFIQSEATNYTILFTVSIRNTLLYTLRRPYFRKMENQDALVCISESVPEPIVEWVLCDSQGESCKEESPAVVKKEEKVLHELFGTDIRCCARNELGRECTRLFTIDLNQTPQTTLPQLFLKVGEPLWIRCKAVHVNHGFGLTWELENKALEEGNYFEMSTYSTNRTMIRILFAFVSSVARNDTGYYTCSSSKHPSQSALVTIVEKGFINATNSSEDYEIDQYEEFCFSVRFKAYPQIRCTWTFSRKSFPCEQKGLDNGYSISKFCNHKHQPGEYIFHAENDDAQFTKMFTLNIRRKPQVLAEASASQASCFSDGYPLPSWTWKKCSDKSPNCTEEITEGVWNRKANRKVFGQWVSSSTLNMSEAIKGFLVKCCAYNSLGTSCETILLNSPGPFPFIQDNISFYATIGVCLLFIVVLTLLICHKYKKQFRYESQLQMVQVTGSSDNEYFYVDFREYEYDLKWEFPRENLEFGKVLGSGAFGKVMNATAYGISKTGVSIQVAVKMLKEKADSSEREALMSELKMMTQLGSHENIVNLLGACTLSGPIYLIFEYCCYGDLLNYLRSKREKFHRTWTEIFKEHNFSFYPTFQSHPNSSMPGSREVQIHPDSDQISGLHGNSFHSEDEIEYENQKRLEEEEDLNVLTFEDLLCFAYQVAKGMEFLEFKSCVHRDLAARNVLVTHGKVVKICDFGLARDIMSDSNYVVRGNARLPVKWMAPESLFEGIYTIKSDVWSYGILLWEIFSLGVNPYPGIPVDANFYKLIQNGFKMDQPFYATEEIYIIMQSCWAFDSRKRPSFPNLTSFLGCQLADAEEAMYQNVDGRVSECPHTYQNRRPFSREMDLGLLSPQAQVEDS
How it was run: (§1)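 Read-out is quantitative PCR of kinase recovered from affinity beads after competition with test compound. Binding reached equilibrium over 1 hour at room temperature; Kd values come from eleven-point threefold serial dilutions.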

[3] = biological target: kinase panel containing either 386 or 392 distinct kinases; experiment: Kinase selectivity score S10 from competition binding panel; conditions: 10 μM, panel of 386 or 392 distinct kinases
How it was run: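 S10 is the number of kinases with percent-of-control under 10, divided by all distinct wild-type kinases tested, from a single 10 μM concentration. Binding measured by qPCR of kinase recovered from ligand-coated beads after 1 h equilibrium at room temperature; kinases were phage fusions or DNA-tagged HEK-293 products.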

[4] = biological target: T2, KIT (Homo sapiens, UniProt P10721); experiment: Competition binding assay, KIT Kd; conditions: competition binding
T2 construct: made in house
T2 sequence (P10721 26-976): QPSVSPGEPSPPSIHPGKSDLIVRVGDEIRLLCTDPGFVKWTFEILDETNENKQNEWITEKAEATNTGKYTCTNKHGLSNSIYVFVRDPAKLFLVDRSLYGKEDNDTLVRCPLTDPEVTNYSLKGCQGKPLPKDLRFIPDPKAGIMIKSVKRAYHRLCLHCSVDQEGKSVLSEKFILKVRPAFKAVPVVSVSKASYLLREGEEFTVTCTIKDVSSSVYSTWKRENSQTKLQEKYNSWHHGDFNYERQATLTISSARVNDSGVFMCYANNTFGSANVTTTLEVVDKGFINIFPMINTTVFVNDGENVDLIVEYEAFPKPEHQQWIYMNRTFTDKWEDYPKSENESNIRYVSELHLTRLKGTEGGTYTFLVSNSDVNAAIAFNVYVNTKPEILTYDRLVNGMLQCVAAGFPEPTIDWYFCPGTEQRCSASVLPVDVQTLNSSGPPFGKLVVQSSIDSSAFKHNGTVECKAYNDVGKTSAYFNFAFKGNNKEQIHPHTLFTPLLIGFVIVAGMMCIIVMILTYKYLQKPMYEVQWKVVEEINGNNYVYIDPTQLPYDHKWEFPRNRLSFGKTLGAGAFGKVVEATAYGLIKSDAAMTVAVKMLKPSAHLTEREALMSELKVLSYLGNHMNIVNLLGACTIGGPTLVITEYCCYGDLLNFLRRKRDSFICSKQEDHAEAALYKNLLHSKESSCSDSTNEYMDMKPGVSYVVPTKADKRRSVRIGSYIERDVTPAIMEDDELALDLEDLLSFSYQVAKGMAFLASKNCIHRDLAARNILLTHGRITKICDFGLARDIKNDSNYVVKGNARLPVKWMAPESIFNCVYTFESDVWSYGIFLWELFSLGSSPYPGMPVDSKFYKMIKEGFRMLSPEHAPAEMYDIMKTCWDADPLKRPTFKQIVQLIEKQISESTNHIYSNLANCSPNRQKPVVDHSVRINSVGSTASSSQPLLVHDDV
How it was run: as §1

| Compound | Kd [2] [µM] | Kinase specificity S(10) [3] | Kd [4] [µM] | IC50 ([1]; Mus musculus) [µM] | IC50 [1] [µM] |
| --- | --- | --- | --- | --- | --- |
| O[C@H]1CCCC[C@H]1Nc1nc2ccc(Cn3cnc4cc(F)cnc43)cc2s1 [Example 162, (1S,2R)-2-((6-((6-fluoro-3H-imidazo[4,5-b]pyridin-3-yl)methyl)benzo[d]thiazol-2-yl)amino)cyclohexanol] | 1 to 5 | A (A≤0.01) | 0.1 to 0.5 |  | 0.05 to 0.4 |
| O=C(c1ccn2c(Cc3ccc4nc(N[C@@H]5CCCC[C@H]5O)sc4c3)cnc2c1)N1CCCC1 [Example 223, (3-((2-(((1R,2R)-2-hydroxycyclohexyl)amino)benzo[d]thiazol-6-yl)methyl)imidazo[1,2-a]pyridin-7-yl)(pyrrolidin-1-yl)methanone] | 1 to 5 | A (A≤0.01) | 0.1 to 0.5 | 0.05 to 0.4 |  |
| Fc1cnc2c(c1)ncn2Cc1ccc2nc(N[C@H]3C=CCCC3)sc2c1 [Example 176, (R)—N-(cyclohex-2-en-1-yl)-6-((6-fluoro-3H-imidazo[4,5-b]pyridin-3-yl)methyl)benzo[d]thiazol-2-amine] | 1 to 5 | B (0.01<B≤0.02) | 0.1 to 0.5 | 0.4 to 1.5 |  |
| OC[C@@H]1CCCC[C@H]1Nc1nc2ccc(Cn3cnc4cc(Br)cnc43)cc2s1 [Example 133, ((1R,2R)-2-((6-((6-bromo-3H-imidazo[4,5-b]pyridin-3-yl)methyl)benzo[d]thiazol-2-yl)amino)cyclohexyl)methanol] | 1 to 5 | A (A≤0.01) | 0.1 to 0.5 | 0.05 to 0.4 |  |
| N#Cc1ccc2c(c1)ncn2Cc1ccc2nc(N[C@@H]3CCCC[C@H]3O)oc2c1 [Example 170, 1-((2-(((1R,2R)-2-hydroxycyclohexyl)amino)benzo[d]oxazol-6-yl)methyl)-1H-benzo[d]imidazole-5-carbonitrile] | > 5 | A (A≤0.01) | > 2 | > 1.5 |  |
| OC[C@H]1CCCC[C@H]1Nc1nc2ccc(Cn3cnc4cc(Br)cnc43)cc2s1 [Example 136, ((1S,2R)-2-((6-((6-bromo-3H-imidazo[4,5-b]pyridin-3-yl)methyl)benzo[d]thiazol-2-yl)amino)cyclohexyl)methanol] | 1 to 5 | B (0.01<B≤0.02) | ≤ 0.1 | 0.05 to 0.4 |  |
| N#Cc1cnc2c(c1)ncn2Cc1ccc2nc(N[C@@H]3CCCC[C@H]3CO)sc2c1 [Example 140, 3-((2-(((1R,2R)-2-(hydroxymethyl)cyclohexyl)amino)benzo[d]thiazol-6-yl)methyl)-3H-imidazo[4,5-b]pyridine-6-carbonitrile] | > 5 | A (A≤0.01) | 0.5 to 2 | 0.4 to 1.5 |  |
| O[C@@H]1CCCC[C@H]1Nc1nc2ccc(Cn3cnc4cc(-n5cncn5)cnc43)cc2s1 [Example 145, (1R,2R)-2-((6-((6-(1H-1,2,4-triazol-1-yl)-3H-imidazo[4,5-b]pyridin-3-yl)methyl)benzo[d]thiazol-2-yl)amino)cyclohexanol] | 1 to 5 | A (A≤0.01) | 0.1 to 0.5 | 0.05 to 0.4 |  |
| O[C@@H]1CCCC[C@H]1Nc1nc2c(F)cc(Cn3cnc4cccnc43)c(F)c2s1 [Example 168, (1R,2R)-2-((6-((3H-imidazo[4,5-b]pyridin-3-yl)methyl)-4,7-difluorobenzo[d]thiazol-2-yl)amino)cyclohexanol] | 1 to 5 | A (A≤0.01) | > 2 | 0.4 to 1.5 |  |
| O[C@@H]1CCCC[C@H]1Nc1nc2ccc(Cc3cnc4cc(-n5cccn5)ccn34)cc2s1 [Example 167, (1R,2R)-2-((6-((7-(1H-pyrazol-1-yl)imidazo[1,2-a]pyridin-3-yl)methyl)benzo[d]thiazol-2-yl)amino)cyclohexanol] | 1 to 5 | A (A≤0.01) | 0.1 to 0.5 | ≤ 0.05 |  |

Now from value to compound, other results behind:

| Kd [2] [µM] | Kinase specificity S(10) [3] | Kd [4] [µM] | Compound | IC50 ([1]; Mus musculus) [µM] | IC50 [1] [µM] |
| --- | --- | --- | --- | --- | --- |
| 0.2 to 1 | B (0.01<B≤0.02) | ≤ 0.1 | COc1nc2c(cc1Br)ncn2Cc1ccc2nc(N[C@@H]3CCCC[C@H]3O)sc2c1 [Example 123, (1R,2R)-2-((6-((6-bromo-5-methoxy-3H-imidazo[4,5-b]pyridin-3-yl)methyl)benzo[d]thiazol-2-yl)amino)cyclohexanol] | 0.05 to 0.4 |  |
| 0.2 to 1 | B (0.01<B≤0.02) | ≤ 0.1 | COc1ccc2c(c1)ncn2Cc1ccc2nc(N[C@@H]3CCCC[C@H]3O)oc2c1 [Example 151, (1R,2R)-2-((6-((5-methoxy-1H-benzo[d]imidazol-1-yl)methyl)benzo[d]oxazol-2-yl)amino)cyclohexanol] | 0.05 to 0.4 |  |
| ≤ 0.2 | C (C>0.02) | ≤ 0.1 | O[C@@H]1CCCC[C@H]1Nc1nc2ccc(Cn3cnc4cc(F)cnc43)cc2o1 [Example 132, (1R,2R)-2-((6-((6-fluoro-3H-imidazo[4,5-b]pyridin-3-yl)methyl)benzo[d]oxazol-2-yl)amino)cyclohexanol] | 0.05 to 0.4 |  |
| 0.2 to 1 | A (A≤0.01) | 0.1 to 0.5 | Cn1nnc(-c2ccc3c(c2)ncn3Cc2ccc3nc(N[C@@H]4CCC[C@@H](O)[C@H]4O)sc3c2)n1 [Example 236, (1R,2S,3R)-3-((6-((5-(2-methyl-2H-tetrazol-5-yl)-1H-benzo[d]imidazol-1-yl)methyl)benzo[d]thiazol-2-yl)amino)cyclohexane-1,2-diol] | 0.05 to 0.4 |  |
| ≤ 0.2 | A (A≤0.01) | ≤ 0.1 | C=Cc1ccc2c(c1)ncn2Cc1ccc2nc(N[C@@H]3CCC[C@@H](O)[C@H]3O)sc2c1 [Example 232, (1R,2S,3R)-3-((6-((5-vinyl-1H-benzo[d]imidazol-1-yl)methyl)benzo[d]thiazol-2-yl)amino)cyclohexane-1,2-diol] | ≤ 0.05 |  |
| 0.2 to 1 | B (0.01<B≤0.02) | 0.1 to 0.5 | OCc1ccc2ncc(Cc3ccc4nc(N[C@@H]5CCCC[C@H]5O)sc4c3)n2n1 [Example 144, (1R,2R)-2-((6-((6-(hydroxymethyl)imidazo[1,2-b]pyridazin-3-yl)methyl)benzo[d]thiazol-2-yl)amino)cyclohexanol] | 0.05 to 0.4 |  |
| 0.2 to 1 | B (0.01<B≤0.02) | 0.1 to 0.5 | OCCOc1ccc2c(c1)ncn2Cc1ccc2nc(N[C@@H]3CCCC[C@H]3O)sc2c1 [Example 172, (1R,2R)-2-((6-((5-(2-hydroxyethoxy)-1H-benzo[d]imidazol-1-yl)methyl)benzo[d]thiazol-2-yl)amino)cyclohexanol] | 0.05 to 0.4 |  |
| 0.2 to 1 | B (0.01<B≤0.02) | ≤ 0.1 | O[C@@H]1CCCC[C@H]1Nc1nc2ccc(Cc3cnc4ccc(Cl)nn34)cc2s1 [Example 158, (1R,2R)-2-((6-((6-chloroimidazo[1,2-b]pyridazin-3-yl)methyl)benzo[d]thiazol-2-yl)amino)cyclohexanol] | ≤ 0.05 |  |
| 0.2 to 1 | A (A≤0.01) | ≤ 0.1 | O[C@@H]1[C@H](O)CCC[C@H]1Nc1nc2ccc(Cn3cnc4cc(-n5cncn5)cnc43)cc2s1 [Example 234, (1R,2S,3R)-3-((6-((6-(1H-1,2,4-Triazol-1-yl)-3H-imidazo[4,5-b]pyridin-3-yl)methyl)benzo[d]thiazol-2-yl)amino)cyclohexane-1,2-diol] | 0.05 to 0.4 |  |
| 0.2 to 1 | B (0.01<B≤0.02) | ≤ 0.1 | N#Cc1cnc2c(c1)ncn2Cc1ccc2nc(N[C@@H]3CCCC[C@H]3O)oc2c1 [Example 124, 3-((2-(((1R,2R)-2-hydroxycyclohexyl)amino)benzo[d]oxazol-6-yl)methyl)-3H-imidazo[4,5-b]pyridine-6-carbonitrile] | 0.05 to 0.4 |  |
